In brackets after ≈: the same amount, converted by molar mass.
How the values were obtained:
[1] = test system: M suipneumoniae J2206/183b; assay: MIC, anti-mycoplasmal, Friis' broth microtiter method; format: cell-based; conditions: read-out: in vitro MIC, BROTH
[2] = test system: Erysipelothrix rhusiopathiae NCTC 8163; assay: MIC, veterinary bacteria; format: cell-based; conditions: NCTC8163, veterinary bacteria (Table 2), read-out: MIC
S typhimurium S18 = assay: MIC, veterinary bacteria; format: cell-based; conditions: veterinary bacteria (Table 2), read-out: MIC
M fermentans MWKL4 [3] = assay: MIC, anti-mycoplasmal, Friis' broth microtiter method; format: cell-based; conditions: read-out: in vitro MIC, BROTH
Past multocida PA1 = assay: MIC, veterinary bacteria; format: cell-based; conditions: veterinary bacteria (Table 2), read-out: MIC
[4] = Serum binding by ultrafiltration; format: in vitro ADME, pig; conditions: pig, serum, compounds at 8 mcg/ml, microbiological assay (B. subtilis ATCC 6633), read-out: % bound to pig serum (converted)
Description: Serum binding was assessed by ultrafiltration of procine serum containing compounds at 8 mcg/ml, and through an Amicon CF50A ultrafiltration cone. Separation of ultrafiltrate was achieved by centrifugation.

Past multocida PA2 = assay: MIC, veterinary bacteria; format: cell-based; conditions: veterinary bacteria (Table 2), read-out: MIC
M dispar NCTC 10125 = assay: MIC, anti-mycoplasmal, Friis' broth microtiter method; format: cell-based; conditions: read-out: in vitro MIC, BROTH
M synoviae ATCC 25204 = assay: MIC, anti-mycoplasmal, serial dilution in Friis' agar; format: cell-based; conditions: read-out: in vitro MIC, AGAR
Bord bronchiseptica BO8 = assay: MIC, veterinary bacteria; format: cell-based; conditions: veterinary bacteria (Table 2), read-out: MIC
[5] = test system: M bovigenitalium ATCC 14173; assay: MIC, anti-mycoplasmal, serial dilution in Friis' agar; format: cell-based; conditions: read-out: in vitro MIC, AGAR
Bord bronchisptica BO9 = assay: MIC, veterinary bacteria; format: cell-based; conditions: veterinary bacteria (Table 2), read-out: MIC
M fermentans MWKL4 [6] = assay: MIC, anti-mycoplasmal, serial dilution in Friis' agar; format: cell-based; conditions: read-out: in vitro MIC, AGAR
M bovis NCTC 10131 = assay: as above; format: cell-based; conditions: read-out: in vitro MIC, AGAR
M pneumoniae ATCC 15492 [7] = assay: as above; format: cell-based; conditions: read-out: in vitro MIC, AGAR
[8] = test system: Staph aureus 152 (pen sens); assay: MIC, veterinary bacteria; format: cell-based; conditions: Staphylococcus aureus, veterinary bacteria (Table 2), read-out: MIC
M suipneumoniae Str 11 = assay: MIC, anti-mycoplasmal, Friis' broth microtiter method; format: cell-based; conditions: read-out: in vitro MIC, BROTH
S dublin S7 = assay: MIC, veterinary bacteria; format: cell-based; conditions: veterinary bacteria (Table 2), read-out: MIC
M alkalescens NCTC 10135 = assay: MIC, anti-mycoplasmal, serial dilution in Friis' agar; format: cell-based; conditions: read-out: in vitro MIC, AGAR
M hyorhinis ATCC 23234 = assay: as above; format: cell-based; conditions: read-out: in vitro MIC, AGAR
[9] = test system: Strep suis (group D) SPS11; assay: MIC, veterinary bacteria; format: cell-based; conditions: veterinary bacteria (Table 2), read-out: MIC
M pulmonis JB [10] = assay: MIC, anti-mycoplasmal, Friis' broth microtiter method; format: cell-based; conditions: read-out: in vitro MIC, BROTH
[11] = test system: Staph aureus B4 (pen resis); assay: MIC, veterinary bacteria; format: cell-based; conditions: Staphylococcus aureus, veterinary bacteria (Table 2), read-out: MIC
M pneumoniae 427a [12] = assay: MIC, anti-mycoplasmal, Friis' broth microtiter method; format: cell-based; conditions: read-out: in vitro MIC, BROTH
Strep uberis SPU1 = assay: MIC, veterinary bacteria; format: cell-based; conditions: veterinary bacteria (Table 2), read-out: MIC
M hyosynoviae ATCC 25591 = assay: MIC, anti-mycoplasmal, serial dilution in Friis' agar; format: cell-based; conditions: read-out: in vitro MIC, AGAR
M gallisepticum S6 = assay: as above; format: cell-based; conditions: read-out: in vitro MIC, AGAR
M bovis ATCC 25025 = assay: as above; format: cell-based; conditions: read-out: in vitro MIC, AGAR
M arthritidis ATCC 14124 = assay: as above; format: cell-based; conditions: read-out: in vitro MIC, AGAR
M pneumoniae ATCC 15492 [13] = assay: MIC, anti-mycoplasmal, Friis' broth microtiter method; format: cell-based; conditions: read-out: in vitro MIC, BROTH
M dispar H225 = assay: as above; format: cell-based; conditions: read-out: in vitro MIC, BROTH
Past Haemolytica PA5 = assay: MIC, veterinary bacteria; format: cell-based; conditions: veterinary bacteria (Table 2), read-out: MIC
M pneumoniae 427a [14] = assay: MIC, anti-mycoplasmal, serial dilution in Friis' agar; format: cell-based; conditions: read-out: in vitro MIC, AGAR
E coli NCTC 10418 = assay: MIC, veterinary bacteria; format: cell-based; conditions: veterinary bacteria (Table 2), read-out: MIC
Staph aureus Oxford = assay: MIC, veterinary bacteria; format: cell-based; conditions: Staphylococcus aureus, veterinary bacteria (Table 2), read-out: MIC
Strep dysgalaciae SPD1 = assay: MIC, veterinary bacteria; format: cell-based; conditions: veterinary bacteria (Table 2), read-out: MIC
E coli E1 = assay: MIC, veterinary bacteria; format: cell-based; conditions: veterinary bacteria (Table 2), read-out: MIC
Strep agalactiae SPA1 = assay: MIC, veterinary bacteria; format: cell-based; conditions: veterinary bacteria (Table 2), read-out: MIC
M pulmonis JB [15] = assay: MIC, anti-mycoplasmal, serial dilution in Friis' agar; format: cell-based; conditions: read-out: in vitro MIC, AGAR

CC(=O)CCCOC(=O)C=C(C)CC1OCC(CC2OC2C(C)C(C)O)C(O)C1O (stereo not drawn) [Example 2, 3-Acetvlpropvl Monate A]
MIC [1]: 0.312 µg/mL (≈ 0.728 µM)
MIC [2]: 80 µg/mL (≈ 187 µM)
MIC (S typhimurium S18): > 80 µg/mL
MIC (M fermentans MWKL4 [3]): < 0.02 µg/mL
MIC (Past multocida PA1): 0.312 µg/mL (≈ 0.728 µM)
fraction unbound [4]: 0.76
MIC (Past multocida PA2): 0.039 µg/mL (≈ 0.091 µM)
MIC (M dispar NCTC 10125): ≤ 0.02 µg/mL
MIC (M synoviae ATCC 25204): < 0.02 µg/mL
MIC (Bord bronchiseptica BO8): 40 µg/mL (≈ 93.3 µM)
MIC [5]: ≤ 0.02 µg/mL
MIC (Bord bronchisptica BO9): 5 µg/mL (≈ 11.7 µM)
MIC (M fermentans MWKL4 [6]): ≤ 0.02 µg/mL
MIC (M bovis NCTC 10131): < 0.02 µg/mL
MIC (M pneumoniae ATCC 15492 [7]): 0.312 µg/mL (≈ 0.728 µM)
MIC [8]: 1.25 µg/mL (≈ 2.92 µM)
MIC (M suipneumoniae Str 11): 0.156 µg/mL (≈ 0.364 µM)
MIC (S dublin S7): > 80 µg/mL
MIC (M alkalescens NCTC 10135): < 0.02 µg/mL
MIC (M hyorhinis ATCC 23234): 0.312 µg/mL (≈ 0.728 µM)
MIC [9]: 10 µg/mL (≈ 23.3 µM)
MIC (M pulmonis JB [10]): < 0.02 µg/mL
MIC [11]: 1.25 µg/mL (≈ 2.92 µM)
MIC (M pneumoniae 427a [12]): 0.625 µg/mL (≈ 1.46 µM)
MIC (Strep uberis SPU1): 0.312 µg/mL (≈ 0.728 µM)
MIC (M hyosynoviae ATCC 25591): 0.078 µg/mL (≈ 0.182 µM)
MIC (M gallisepticum S6): 2.5 µg/mL (≈ 5.83 µM)
MIC (M bovis ATCC 25025): < 0.02 µg/mL
MIC (M arthritidis ATCC 14124): 2.5 µg/mL (≈ 5.83 µM)
MIC (M pneumoniae ATCC 15492 [13]): 0.312 µg/mL (≈ 0.728 µM)
MIC (M dispar H225): ≤ 0.02 µg/mL
MIC (Past Haemolytica PA5): 5 µg/mL (≈ 11.7 µM)
MIC (M pneumoniae 427a [14]): 0.312 µg/mL (≈ 0.728 µM)
MIC (E coli NCTC 10418): > 80 µg/mL
MIC (Staph aureus Oxford): 1.25 µg/mL (≈ 2.92 µM)
MIC (Strep dysgalaciae SPD1): 1.25 µg/mL (≈ 2.92 µM)
MIC (E coli E1): > 80 µg/mL
MIC (Strep agalactiae SPA1): 2.5 µg/mL (≈ 5.83 µM)
MIC (M pulmonis JB [15]): ≤ 0.02 µg/mL
